What was measured:
O-GlcNAcase = molecular target: T1, O-GlcNAcase (Homo sapiens, UniProt O60502); assay: Cellular O-GlcNAcase activity (protein O-GlcNAc Western blot) in fibroblasts and SH-SY5Y cells; assay type: cell-based; conditions: concentrations up to 100 μM
T1 construct: host or cells: wild-type fibroblasts AG07059 and SH-SY5Y cells
T1 sequence (O60502 1-916): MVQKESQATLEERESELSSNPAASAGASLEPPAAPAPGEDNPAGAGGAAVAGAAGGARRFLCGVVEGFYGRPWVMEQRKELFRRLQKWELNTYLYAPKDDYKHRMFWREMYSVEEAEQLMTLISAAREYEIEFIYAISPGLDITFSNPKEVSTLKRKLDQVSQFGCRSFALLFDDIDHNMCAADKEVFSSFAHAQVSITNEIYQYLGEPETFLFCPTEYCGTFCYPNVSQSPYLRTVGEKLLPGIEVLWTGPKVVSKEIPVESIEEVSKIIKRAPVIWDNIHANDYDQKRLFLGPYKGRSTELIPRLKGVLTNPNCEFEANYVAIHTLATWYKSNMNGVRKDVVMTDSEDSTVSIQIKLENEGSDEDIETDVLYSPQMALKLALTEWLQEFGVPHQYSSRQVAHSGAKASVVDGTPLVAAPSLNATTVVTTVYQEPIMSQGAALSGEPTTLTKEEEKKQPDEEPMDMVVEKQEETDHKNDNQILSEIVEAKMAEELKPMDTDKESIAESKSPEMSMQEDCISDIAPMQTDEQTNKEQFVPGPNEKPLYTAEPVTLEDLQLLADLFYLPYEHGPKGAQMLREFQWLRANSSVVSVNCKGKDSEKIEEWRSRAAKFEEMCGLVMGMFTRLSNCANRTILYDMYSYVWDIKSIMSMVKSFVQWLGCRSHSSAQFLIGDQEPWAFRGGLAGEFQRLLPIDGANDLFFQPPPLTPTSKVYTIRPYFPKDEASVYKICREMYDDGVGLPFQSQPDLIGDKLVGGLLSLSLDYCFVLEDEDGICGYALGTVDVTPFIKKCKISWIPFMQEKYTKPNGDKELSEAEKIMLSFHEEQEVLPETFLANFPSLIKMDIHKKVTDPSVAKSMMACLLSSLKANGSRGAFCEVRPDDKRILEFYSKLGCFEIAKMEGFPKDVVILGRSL
Method: Effect of AdDNJ on cellular O-GlcNAcase activity was tested in both wild-type fibroblast (AG07059, Coriell) and SH-SY5Y cells. Fibroblasts were incubated with or without 10 μM AdDNJ or Thiamet G in complete media for 24 h at 37° C. in a humidified 8% CO2 incubator. For SH-SY5Y cells, multiple concentrations (0 μM to 100 μM) of AdDNJ and Thiamet G were used. Cell pellets were lysed in RIPA buffer and total protein-associated O-GlcNAc level was measured using Western blot. Briefly, 40 μg total protein was separated, transferred to PVDF and probed with an anti O-GlcNAc antibody (18B10.C7, Pierce). Chemiluminescence was imaged using an Alpha Innotech FluoroChem Q imager and quantified by densitometry using AlphaView SA software (Alpha Innotech). The blots were stripped and re-probed with an anti-calnexin antibody (ab22595, Abcam). For O-GlcNAc quantification, whole lane O-GlcNAc densitometry was background subtracted and normalized to the calnexin load control band.

human skin fibroblasts = assay: Cell viability, tetrazolium-formazan conversion; assay type: cell-based; conditions: concentrations as high as 1 mM, up to 120 hours
Method: Viability of human fibroblast (CRL2076) and human neuroblastoma (SH-SY5Y) cells was tested after prolonged exposure to varying concentrations of AdDNJ. In a 96-well plate, fibroblasts were incubated in complete media containing increasing concentrations of AdDNJ up to 1 mM for either 72 or 120 hours at 37° C. in a humidified 8% CO2 incubator. Living cells were quantified using a tetrazoliuim-formazan conversion method according to the manufacturer's instructions (Promega Non-Radioactive 96-well Titer assay, TB112). SH-SY5Y cells were tested in the same manner as fibroblasts but plated in collagen-coated plates (Nunc #152036). After 24 hour, 48 hour and 120 hour exposure to AdDNJ, living SH-SY5Y cells were quantified as described above. All dosing concentrations were done in triplicate.

β-hex [1] = molecular target: T2, β-hex (Mus musculus, UniProt P20060); assay: Proof-of-concept study: brain β-hex levels; assay type: in vivo, Dutch APP^E693Q transgenic mice; conditions: 3-month course, dose-dependent
T2 construct: from tissue; host or cells: brain of Dutch APP E693Q transgenic mice
T2 sequence (P20060 32-536): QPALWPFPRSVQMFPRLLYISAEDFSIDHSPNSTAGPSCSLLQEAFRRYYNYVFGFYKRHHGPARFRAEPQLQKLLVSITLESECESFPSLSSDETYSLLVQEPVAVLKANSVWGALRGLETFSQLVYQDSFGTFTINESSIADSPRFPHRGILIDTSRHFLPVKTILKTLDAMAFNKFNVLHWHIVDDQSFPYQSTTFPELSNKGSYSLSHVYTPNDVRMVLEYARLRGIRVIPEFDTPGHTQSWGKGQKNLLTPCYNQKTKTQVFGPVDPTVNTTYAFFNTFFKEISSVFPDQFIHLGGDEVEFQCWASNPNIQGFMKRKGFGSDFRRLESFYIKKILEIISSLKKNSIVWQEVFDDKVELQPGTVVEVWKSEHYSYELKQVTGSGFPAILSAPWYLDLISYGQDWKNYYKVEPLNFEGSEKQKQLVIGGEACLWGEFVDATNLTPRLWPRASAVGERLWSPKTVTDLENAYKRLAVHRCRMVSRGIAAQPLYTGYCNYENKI
Method: (§1) The generation and characterization of Dutch APPE693Q mice transgenic mice is described in Gandy, S., et al. Days to criterion as an indicator of toxicity associated with human Alzheimer amyloid-beta oligomers. Annals of neurology 68, 220-230 (2010). 3-month-old male Dutch APP^E693Q mice transgenic mice were orally gavaged 5 days/week with either vehicle (water) (n=15) or 3, 10, 30 or 100 mg/kg AdDNJ for 3 months (n=13). All animal studies were approved and conducted in accordance with the Institutional Animal Care and Usage Committee. Mice were kept in a pathogen-free environment, on a 12-hour light/dark cycle and given ad libitum access to food and water. At 6 month of age treatment groups, and a 3-month-old untreated baseline group (n=15), were cognitively assessed in the NOR, EPM and FC tests. 48 hours following the final dose mice were perfused with ice-cold 1×PBS. The brain was removed and dissected into two hemispheres. One half was snap-frozen on dry ice and stored at −80° C. for biochemistry; the other half was post-fixed in 4% paraformaldehyde then sagittally sectioned on a vibratome into 30 μm sections and stored at 4° C. in storage buffer until histological analyses.

β-hex [2] = assay: Proof-of-concept study: brain β-hex levels; assay type: in vivo, Dutch APP^E693Q transgenic mice; conditions: 3-month course
Method: as §1

CC(=O)NC1CNC(CO)[C@@H](O)C1O (some centres unmarked) [AdDNJ, 2-acetamido-1,2-dideoxynojirimycin]
inhibition of O-GlcNAcase (O-GlcNAcase): did not inhibit | effect on cell viability (human skin fibroblasts): little or no effect on cell viability | brain β-hex B level (β-hex [1]): increased | increase in total brain β-hex (β-hex [2]; 3-100 mg/kg oral 5 days/week, at the highest dose): up to 3 fold | brain β-hex A&S level (β-hex [2]; dose-dependent): increased
